Test results taken from US20220340566A1, “BENZYL AMINE-CONTAINING 5,6-HETEROAROMATIC COMPOUNDS USEFUL AGAINST MYCOBACTERIAL INFECTION” (priority 2019, published 2022).
Read-outs that look alike come from different tables or passages of the source.

How the values were obtained:
[1] = Metabolic stability test in pooled human liver microsomes; type: in vitro ADME; settings: human liver microsomes 0.5 mg protein/mL, 1 mmol/L NADPH, 37° C., 30 minutes
Outline: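 Remaining-rate readout: parent compound left after 30 min versus 0 min (set as 100%), measured by LC/MS/MS or SPE/MS. Oxidative reaction ran at 37° C. with 1 mmol/L NADPH, 0.5 mg protein/mL pooled human microsomes, 50 mmol/L Tris-HCl pH 7.4 buffer.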

[2] = test system: Mycobacterium avium ATCC700898; experiment: Determination of IC85 against M. avium (resazurin fluorescence); type: cell-based; settings: 37° C., 3 days incubation then resazurin, fluorescence one day later
[3] = Mycobacterium avium, ATCC700898, M. avium ATCC700898, CAMHB medium, read-out: IC85
[4] = M. avium ATCC700898, CAMHB medium

| Compound | MS_h_% (remaining amount of compound after reaction, 0 minute = 100%) [1] [%] | IC85 [2, 3] [nM] | IC85 [2, 4] [nM] |
| --- | --- | --- | --- |
| COc1ccn2nc(C)c(C(=O)NCc3ccc(N4CCN(c5ccc(OC(F)(F)F)cc5)[C@@H](C)C4)cc3)c2c1 [Compound I-3-50] | 58.5 | 5.8 | – |
| CCCCOc1ccc(N2CCC(c3ccc(CNC(=O)c4c(CC)nc5ccc(Cl)cn45)c(F)c3)CC2)cc1.Cl [Compound I-1-145] | 80 | 16 | – |
| CCc1nc2ccc(Cl)cn2c1C(=O)NCc1ccc(N2C[C@H](C)N(c3ccc(OCC(F)(F)F)nc3)C[C@H]2C)c(F)c1.Cl [Compound I-1-134] | 65 | 43 | – |
| [2H]c1c(C([2H])([2H])[2H])c([2H])n2c(C(=O)NCc3ccc(-c4ccc(C(F)(F)F)cc4)cc3)c(C)nc2c1[2H] [Compound I-3-11] | 84.7 | 2.8 | – |
| Cc1cn2c(C(=O)NCc3ccc(N4CCN(c5ccc(OC(F)(F)F)cc5)C(C)(C)C4)c(F)c3)c(C)nc2s1 [Compound I-3-14] | 82.7 | 190 | – |
| CCc1nc2cc(F)ccn2c1C(=O)NCc1ccc(N2CCN(c3ccc(OC(F)(F)F)cc3F)[C@@H](C)C2)c(F)c1.Cl [Compound I-1-118] | 97 | 7.6 | – |
| CCc1nc2cc(C)ccn2c1C(=O)NCc1ccc(Oc2cccc(C(F)(F)F)c2)cc1 [Compound I-3-40] | 66 | 590 | – |
| Cc1nc2ccc(F)cn2c1C(=O)NCc1ccc(C2CCN(c3ccc(OC(F)(F)F)cc3)CC2)c(F)c1 [Compound I-1-18] | 85 | 11 | – |
| Cc1ccn2c(C(=O)NCc3ccc(C4CCN(c5ccc(OC(F)(F)F)cn5)CC4)cc3F)c(C)nc2c1 [Compound I-1-11] | 72 | 89 | – |
| CCc1nc2ccc(Cl)cn2c1C(=O)NCc1ccc(N2CCN(c3ccc(OCC(C)(C)C)cc3)[C@@H](C)C2)c(F)c1.Cl [Compound I-1-56] | 60 | 22 | – |
| CCc1nc2ccc(Cl)cn2c1C(=O)NCc1ccc(C2=CCC(c3ccc(OC(F)(F)F)cc3)CC2)c(F)c1.Cl (stereo not drawn) [Compound I-1-138] | 83 | 6.8 | – |
| CCc1nc2ccc(F)cn2c1C(=O)NCc1ccc(N2CCN(c3ccc(OC(F)(F)F)cc3)[C@@H](C)C2)c(F)c1 [Compound I-1-34] | 65 | 8 | – |
| Cc1ccn2nc(C)c(C(=O)NCc3ccc(C4CCN(c5ccc(OC(F)(F)F)cc5)CC4)c(F)c3)c2c1.Cl [Compound I-1-72] | 87 | 66 | – |
| Cc1ccn2nc(C)c(C(=O)NCc3ccc(N4CCN(c5ccc(OC(F)(F)F)cc5)[C@@H](C)C4)c(F)c3)c2c1.Cl [Compound I-1-70] | 84 | 25 | – |
| CCOc1ccc(N2CCN(c3ccc(CNC(=O)c4c(CC)nc5cc(F)ccn45)cc3F)C[C@@H]2C)cn1.Cl [Compound I-1-120] | 71 | 12 | – |
| CCc1nc2ccc(Cl)cn2c1C(=O)NCc1ccc(N2CCC(c3ccc(OC(F)(F)F)cc3)CC2)c(F)c1.Cl [Compound I-1-62] | 82 | 7.2 | – |
| CCc1nc2ccc(Cl)cn2c1C(=O)NCc1ccc(N2CCN(c3ccc(OC(F)(F)F)cc3)[C@@H](CC)C2)c(F)c1 [Compound I-1-42] | 59 | 9 | – |
| C[C@H]1CN(c2ccc(CNC(=O)c3c(C(F)(F)F)nc4ccc(Cl)cn34)cc2F)CCN1c1ccc(OC(F)(F)F)cc1 [Compound I-1-24] | 62 | – | 32 |
| CCc1nc2ccc(Cl)cn2c1C(=O)NCc1ccc(-c2ccc(OC(F)(F)F)cc2)c(F)c1 [Compound I-3-7] | 89.5 | 56 | – |
| CCc1nc2ccc(Cl)cn2c1C(=O)NCc1ccc(C2CCN(c3ccc(OC(F)(F)F)cc3)[C@@H](C)C2)c(F)c1.Cl (stereo partly drawn) [Compound I-1-106] | 59 | 6.2 | – |
| CCc1nc2ccc(Cl)cn2c1C(=O)NCc1ccc(OC2CCC(Oc3ccc(OC(F)(F)F)cc3)CC2)c(F)c1.Cl (stereo not drawn) [Compound I-3-20] | 80.8 | 18 | – |
| COc1ccn2nc(C)c(C(=O)NCc3ccc(N4CCN(c5ccc(OC(F)(F)F)cc5)[C@@H](C)C4)c(Cl)c3)c2c1.Cl [Compound I-1-132] | 62 | 14 | – |
| CCc1nc2cc(F)ccn2c1C(=O)NCc1ccc(N2CCN(c3ccc(C(F)(F)F)cn3)[C@@H](C)C2)c(F)c1.Cl [Compound I-1-114] | 87 | – | 7.4 |

| Compound | MS_h_% (remaining amount of compound after reaction, 0 minute = 100%) [1] [%] | IC85 [2, 3] [nM] | IC85 [2, 4] [nM] |
| --- | --- | --- | --- |
| COc1ccn2nc(C)c(C(=O)NCc3ccc(N4CCC(c5ccc(OC(F)(F)F)cc5)CC4)cc3)c2c1 [Compound I-3-8] | 87.1 | 28 | – |
| CCc1nc2cc(F)ccn2c1C(=O)NCc1ccc(N2C[C@H](C)N(c3ccc(OCC(F)(F)F)nc3)C[C@H]2C)c(F)c1.Cl [Compound I-1-135] | 75 | 120 | – |
| Cc1cn2c(C(=O)NCc3ccc(N4CCC(c5ccc(OC(F)(F)F)cc5)CC4)c(F)c3)c(C)nc2s1.Cl [Compound I-3-6] | 91.7 | 260 | – |
| COc1ccn2nc(C)c(C(=O)NCc3cc(F)c(N4CCN(c5ccc(OC(F)(F)F)cc5)[C@@H](C)C4)c(F)c3)c2c1.Cl [Compound I-1-129] | 80 | 6.8 | – |
| Cc1cc2nc(C)c(C(=O)NCc3ccc(C4CCN(c5ccc(OC(F)(F)F)cc5)CC4)c(F)c3)n2cc1Cl [Compound I-1-13] | 82 | 57 | – |
| CCc1nc2ccc(Cl)cn2c1C(=O)NCc1ccc(N2C[C@H](C)N(c3ccc(OC(F)(F)F)cc3)C[C@H]2C)c(F)c1 [Compound I-1-39] | 75 | 11 | – |
| CCc1nc2ccc(Cl)cn2c1C(=O)NCc1ccc(N2CCN(c3ccc(OCC4CC4)cc3)[C@@H](C)C2)c(F)c1.Cl [Compound I-1-54] | 79 | 34 | – |
| O=C(NCc1ccc(C2CCN(c3ccc(OC(F)(F)F)cc3)CC2)c(F)c1)c1c(C(F)(F)F)nc2ccc(Cl)cn12 [Compound I-1-30] | 89 | – | 3.1 |
| Cc1ccn2c(C(=O)NCc3ccc(O[C@H]4CCN(c5ccc(OC(F)(F)F)cc5)C4)c(F)c3)c(C)nc2c1 [Compound I-3-49] | 60.2 | 500 | – |
| CCc1nc2cc(F)ccn2c1C(=O)NCc1ccc(O[C@H]2C[C@H](Oc3ccc(OC(F)(F)F)cc3)C2)c(F)c1.Cl [Compound I-3-1] | 99.1 | 54 | – |
| CCc1nc2cc(F)ccn2c1C(=O)NCc1ccc(N2CCN(c3ccc(OC(F)(F)F)cn3)[C@@H](C)C2)c(F)c1.Cl [Compound I-1-108] | 71 | 4.2 | – |
| CCc1nc2ccc(Cl)cn2c1C(=O)NCc1ccc(N2CCN(c3ccc(OC(F)(F)F)cc3)[C@@H](C)C2)c(Cl)c1.Cl [Compound I-1-139] | 61 | 9 | – |
| CCOc1ccc(N2CCN(c3ccc(CNC(=O)c4c(CC)nc5ccc(Cl)cn45)c(F)c3)C[C@@H]2C)cc1.Cl [Compound I-1-100] | 65 | 46 | – |
| CCc1nc2cc(F)ccn2c1C(=O)NCc1ccc(N2CCN(c3ccc(OC(F)(F)C(F)(F)F)cc3)[C@@H](C)C2)c(F)c1.Cl [Compound I-1-121] | 95 | 3 | – |
| CCc1nc2ccc(Cl)cn2c1C(=O)NCc1ccc(-n2cc3c(n2)CN(c2ccc(OC(F)(F)F)cc2)C3)c(F)c1.Cl [Compound I-3-47] | 62 | 5.1 | – |
| CCc1nc2ccc(Cl)cn2c1C(=O)NCc1ccc(N2CCN(c3ccc(OCC4CC4)cc3)[C@@H](C)C2)cc1F.Cl [Compound I-1-102] | 75 | 24 | – |
| Cc1ccc2nc(C)c(C(=O)NCc3ccc(S(F)(F)(F)(F)F)cc3)n2c1 [Compound I-3-44] | 63.9 | 110 | – |
| Cc1ccn2nc(C)c(C(=O)NCc3ccc(N4CCN(c5ccc(OC(F)(F)F)cc5)[C@H](C)C4)c(F)c3)c2c1.Cl [Compound I-1-71] | 78 | 100 | – |
| CCc1nc2ccc(Cl)cn2c1C(=O)NCc1ccc(C2CCN(c3ccc(OC(F)(F)F)cc3)CC2)cc1F [Compound I-1-10] | 60 | 3.1 | – |
| Cc1cn2c(C(=O)NCc3ccc(Oc4cccc(C(F)(F)F)c4)cc3)c(C)nc2s1 [Compound I-3-46] | 63.1 | 610 | – |
| Cc1nc2ccc(F)cn2c1C(=O)NCc1ccc(N2CCN(c3ccc(C(F)(F)F)cn3)CC2)c(C(F)(F)F)c1 [Compound I-2-5] | 81.8 | 420 | – |
| Cc1ccn2c(C(=O)NCc3ccc(N4CCC(c5ccc(OC(F)(F)F)cc5)CC4)cc3F)c(C)nc2c1.Cl [Compound I-1-81] | 94 | 330 | – |
